# Measurements taken from patent publication US9469643B2, “Polymorphic forms of (S)-2-(1-(9H-purin-6-ylamino)propyl)-5-fluoro-3-phenylquinazolin-4(3H)-one” (GILEAD CALISTOGA LLC, priority 2012, dated 2016).
# Like-named read-outs stand apart in the source and are kept apart here.
# Key:
# Assay type in all cases: physicochemical
# [1] = Hydrate screen in IPA/water system: solubility of slurried Form I; conditions: isopropyl alcohol/water mixture, organic solvent or mixture, thermodynamic from solid; for solubility: read-out: 15-16 Day Solubility
# Description: (§1) About 50 mg of Form I of (S)-2-(1-(9H-purin-6-ylamino)propyl)-5-fluoro-3-phenylquinazolin-4(3H)-one was slurried in either (A) a 1-mL mixture of a isopropyl alcohol (IPA) and water, or (B) a 1-mL mixture of ethanol and water, for several days at room temperature. As used herein, water activity (aw) in liquid phase corresponds to relative humidity in the atmosphere. For example, 0.5 aw is equivalent to 50% relative humidity.
# [2] = Hydrate screen in IPA/water system: solid form by XRPD
# Description: XRPD patterns were collected using a PANalytical X'Pert MPD Pro Powder X-Ray Diffractometer configured with reflectance stage with spinning, data acquisition range: 2-40 degrees 2θ, Copper (Cu) anode; Kα1/Kα2 radiation; tube current 40 mA; tube tension 45 kV; automatic divergence and anti-scatter slits. Samples were prepared for analysis by distributing solid material as a thin layer on a silicon holder. Each holder was mounted on a reflectance/transmittance stage and rotated during data acquisition.
# as §1
# [3] = Hydrate screen in ethanol/water system: solid form
# Description: as §1
# Form VII of (S)-2-(1-(9H-purin-6-ylamino)propyl)-5-fluoro-3-phenylquinazolin-4(3H)-one was a mixed water/ethanol solvate.
# [4] = Conversion of ball milled Form I into Form II in acetone slurry (XRPD); conditions: 10 g ball milled at 30 Hz for 10 minutes, stirred in 300 mL acetone at 28° C.
# Description: Form I was prepared as described in Example 1. Form I solids were ball milled in batches for 10 minutes at 30 Hz. Samples were analyzed by XRPD. Table 1 below summarizes the amount of polymorphic Form II observed from conversion of polymorphic Form I. Additionally, 10 g of Form I was ball milled at 30 Hz for 10 minutes and stirred in 300 mL of acetone at 28° C.
# [5] = Dry and wet grinding experiments: conversion of Form I into Form II in slurry
# Description: Form I of (S)-2-(1-(9H-purin-6-ylamino)propyl)-5-fluoro-3-phenylquinazolin-4(3H)-one was pre-processed using various grinding methods before forming a slurry in either acetone or THF and stirring at either room temperature, 22° C. or 30° C. As used in this Example, “enriched” describes a sample that contains substantially more Form II than Form I.
# [6] = Compression of Form I in hydraulic tablet press, XRPD
# Description: Form I of (S)-2-(1-(9H-purin-6-ylamino)propyl)-5-fluoro-3-phenylquinazolin-4(3H)-one was subjected to high pressure in a hydraulic tablet press (ENERPAC Model P142 hydraulic press; #9166 0.275 inch punch) as shown in Table 3 below. The relaxation time is the time between compressions. A sample of the compressed solids was analyzed by XRPD and DSC. FIGS. 2A and 2B depict the XRPD and DSC patterns of polymorphic Form II.
# [7] = Form I suspensions in acetone at different temperatures: form conversion; conditions: magnetic stirring
# Description: Form I of (S)-2-(1-(9H-purin-6-ylamino)propyl)-5-fluoro-3-phenylquinazolin-4(3H)-one was suspended in acetone at a concentration of 50 mg/mL, and stirred magnetically over a period of 5-6 days. Four experiments at different temperature were conducted.
# Table 4 summarizes the reaction conditions and the amount of polymorphic forms observed for each of the four experiments. As used in this Example, “Enriched II” described a sample that contains substantially more Form II than Form I.
# [8] = Effect of temperature on form conversion of solids (DSC, heating, XRPD)
# Description: DSC indicated close melting points for each polymorph and a solid-solid transition in Form II at about 115° C. to produce Form I. To confirm this finding, […] of Form I of (S)-2-(1-(9H-purin-6-ylamino)propyl)-5-fluoro-3-phenylquinazolin-4(3H)-one was heated at 50° C., 60° C., 70° C., 80° C., 90° C., 100° C., 110° C. and 120° C. jacket temperature using Destiny for 22 hours.
# [9] = IPA/water aw 0.2, room temperature, solid by XRPD Form I & II
# [10] = IPA/water aw 0.3, room temperature, solid by XRPD Form I & II
# [11] = IPA/water aw 0.4, room temperature, solid by XRPD Form I & II
# [12] = IPA/water aw 0.5, room temperature, solid by XRPD Form I & II
# [13] = IPA/water aw 0.6, room temperature, solid by XRPD Form I & II
# [14] = Form I slurried in IPA/water aw 0.2, room temperature
# [15] = Form I slurried in IPA/water aw 0.3, room temperature
# [16] = Form I slurried in IPA/water aw 0.4, room temperature
# [17] = Form I slurried in IPA/water aw 0.5, room temperature
# [18] = Form I slurried in IPA/water aw 0.6, room temperature
# [19] = Form I slurried in IPA/water aw 0.7, room temperature
# [20] = Form I slurried in IPA/water aw 0.8, room temperature
# [21] = Form I slurried in IPA/water aw 0.9, room temperature
smiles,measurement,setting,value
"CC[C@H](Nc1ncnc2[nH]cnc12)c1nc2cccc(F)c2c(=O)n1-c1ccccc1 [Form I, (S)-2-(1-(9H-purin-6-ylamino)propyl)-5-fluoro-3-phenylquinazolin-4(3H)-one]",solubility at 48 h,[1]; [9],24 mg/mL
same,solubility,[1]; [9],20 mg/mL
same,solubility at 48 h,[1]; [10],19 mg/mL
same,solubility,[1]; [10],19 mg/mL
same,solubility at 48 h,[1]; [11],18 mg/mL
same,solubility,[1]; [11],20 mg/mL
same,solubility at 48 h,[1]; [12],23 mg/mL
same,solubility,[1]; [12],20 mg/mL
same,solubility at 48 h,[1]; [13],23 mg/mL
same,solubility,[1]; [13],24 mg/mL
same,solubility at 48 h,"[1]; IPA/water aw 0.7, room temperature, solid by XRPD Form III",9.8 mg/mL
same,solubility at 48 h,"[1]; IPA/water aw 0.8, room temperature, solid by XRPD Form III",11 mg/mL
same,15-16 Day XRPD (solid form),[2]; [14],Form I & II
same,48 Hour XRPD (solid form),[2]; [14],Form I & II
same,15-16 Day XRPD (solid form),[2]; [15],Form I & II
same,48 Hour XRPD (solid form),[2]; [15],Form I & II
same,15-16 Day XRPD (solid form),[2]; [16],Form I & II
same,48 Hour XRPD (solid form),[2]; [16],Form I & II
same,15-16 Day XRPD (solid form),[2]; [17],Form I & II
same,48 Hour XRPD (solid form),[2]; [17],Form I & II
same,15-16 Day XRPD (solid form),[2]; [18],Form I & II
same,48 Hour XRPD (solid form),[2]; [18],Form I & II
same,15-16 Day XRPD (solid form),[2]; [19],Form III
same,48 Hour XRPD (solid form),[2]; [19],Form III
same,15-16 Day XRPD (solid form),[2]; [20],Form III
same,48 Hour XRPD (solid form),[2]; [20],Form III
same,15-16 Day XRPD (solid form),[2]; [21],Form III
same,48 Hour XRPD (solid form),[2]; [21],Form III
same,Form (solid form after slurry),"[3]; Form I slurried in ethanol/water aw 0.9, several days, room temperature",I & VII
same,Form conversion in ethanol/water system,"[3]; water activity 0.5 and 0.6, room temperature (data not shown in Table 6)",no conversion
same,Form conversion in ethanol/water system,"[3]; water activity from 0.2 to 0.4, room temperature (data not shown in Table 6)",slowly converted to Form II
same,conversion of Form I into Form II,[4]; after 18 hours,about 50%
same,conversion of Form I into Form II,[4]; after 40 hours,about 90%
same,Form II content,"[5]; 0.2 g, dry/wet grinding, acetone slurry, r.t., magnetic stirring, after 1 day",Enriched after 1 day
same,Form II content,"[5]; 0.2 g, dry/wet grinding, acetone slurry, r.t., magnetic stirring, after 2 days",Highly enriched after 2 days
same,Form II content,"[5]; 1 g, dry/wet grinding, acetone slurry, r.t., magnetic stirring, after 1 week",Trace amount after 1 week
same,Form II content,"[5]; 1 g, high shear mixer (dry), THF slurry, r.t., magnetic stirring, after 1 day",Trace amount after 1 day
same,Form II content,"[5]; 1 g, high shear mixer (dry), acetone slurry, r.t., magnetic stirring, after 1 day",Trace amount after 1 day
same,Form II content,"[5]; 1 g, jet milled, acetone slurry, 22 ° C., magnetic stirring, after 1 day",Small amount after 1 day
same,Form II content,"[5]; 1 g, jet milled, acetone slurry, 22 ° C., magnetic stirring, after 4 days",Enriched after 4 days
same,Form II content,"[5]; 5 g, high shear wet mill, acetone slurry, 30 ° C., overhead stirring, after 3 days",Undetectable after 3 days
same,Form II content,"[5]; 20 g, dry grinding, acetone slurry, 30 ° C., overhead stirring, after 3 days",Undetectable after 3 days
same,XRPD (forms observed),"[6]; 163 mg, 2000 psi, 5 min, relaxation time 72 hours",I & II (~1:1)
same,XRPD (forms observed),"[6]; 164 mg, 3000 psi, 5 min, relaxation time 2 hours",I & II (~1:1)
same,XRPD (forms observed),"[6]; 167 mg, 2000 psi, 10 min, relaxation time 72 hours",I & II (~1:1)
same,XRPD (forms observed),"[6]; 168 mg, 3000 psi, 10 min, relaxation time 2 hours",I & II (~1:1)
same,XRPD (forms observed),"[6]; 171 mg, 3000 psi, 60 min, relaxation time 72 hours",I & II (excess
same,XRPD (forms observed),"[6]; amount NA, atm pressure, no compression",Form I &
same,conversion of Form I to Form II,[6]; compressed at 3000 psi for 60 minutes (FIG. 5C),over 50%
same,XRPD (forms observed),"[6]; ~150 mg, 1000 psi, <0.5 min, relaxation time 24 hours",Form I and II
same,XRPD (forms observed),"[6]; ~150 mg, atm pressure, no compression",Form I and II
same,XRPD (forms observed),"[6]; ~160 mg, 4500 psi, <0.5 min",Form I and II
same,Form observed after suspension in acetone,"[7]; 50 mg/mL, 30 ° C., suspension time 5 days",Enriched II
same,Form observed after suspension in acetone,"[7]; 51 mg/mL, 27 ° C., suspension time 5 days",Enriched II
same,Form observed after suspension in acetone,"[7]; 52 mg/mL, 33 ° C., suspension time 6 days",Form I
same,Form observed after suspension in acetone,"[7]; 52 mg/mL, 37 ° C., suspension time 6 days",Form I
same,temperature at which form conversion of heated solids was observed,"[8]; solids heated at 50-120° C. jacket temperature for 22 hours, XRPD (FIG. 6)",around 90 °C
"CC[C@H](Nc1ncnc2[nH]cnc12)c1nc2cccc(F)c2c(=O)n1-c1ccccc1 [Form II, (S)-2-(1-(9H-purin-6-ylamino)propyl)-5-fluoro-3-phenylquinazolin-4(3H)-one]",solid-solid transition temperature (to produce Form I),[8]; by DSC,about 115 °C
